# Data as given in patent publication US20240252454A1, “COMPOSITION COMPRISING AN INHIBITOR OF MITOCHONDRIAL TRANSCRIPTION” (LEAD DISCOVERY CENTER GMBH, priority 2021, published 2024).
# Legend:
# Experiment in all cases: SRB assay, IMT combined with inhibitor
# Assay type in all cases: cell-based
# A549 = A549 (lung); concentration series of the labelled inhibitor + fixed concentration of IMT (3S)-1-[(2R)-2-[4-(2-chloro-4-fluoro-phenyl)-2-oxo-chromen-7-yl]oxypropanoyl]piperidine-3-carboxylic acid (Table 3: 40 nM, 120 h); negative=synergistic, positive=antagonistic
# How it was run: (§1)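 Cellular biomass changes were measured by sulforhodamine B staining in medium with 5 mM glucose, at least two independent replicates. Dilution series of MAPK pathway standard-of-care inhibitors were combined with a fixed 40 nM (3S)-1-[(2R)-2-[4-(2-chloro-4-fluoro-phenyl)-2-oxo-chromen-7-yl]oxypropanoyl]piperidine-3-carboxylic acid; growth followed over 120 h versus untreated cells.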
# A673 = A673 (muscle); concentration series of the labelled inhibitor + fixed concentration of IMT (3S)-1-[(2R)-2-[4-(2-chloro-4-fluoro-phenyl)-2-oxo-chromen-7-yl]oxypropanoyl]piperidine-3-carboxylic acid (Table 3: 40 nM, 120 h); negative=synergistic, positive=antagonistic
# How it was run: as §1
# SKMEL28 = SKMEL28 (skin); concentration series of the labelled inhibitor + fixed concentration of IMT (3S)-1-[(2R)-2-[4-(2-chloro-4-fluoro-phenyl)-2-oxo-chromen-7-yl]oxypropanoyl]piperidine-3-carboxylic acid (Table 3: 40 nM, 120 h); negative=synergistic, positive=antagonistic
# How it was run: as §1
# HCT15 = HCT15 (colon); concentration series of the labelled inhibitor + fixed concentration of IMT (3S)-1-[(2R)-2-[4-(2-chloro-4-fluoro-phenyl)-2-oxo-chromen-7-yl]oxypropanoyl]piperidine-3-carboxylic acid (Table 3: 40 nM, 120 h); negative=synergistic, positive=antagonistic
# How it was run: as §1
# LOVO = LOVO (colon); concentration series of the labelled inhibitor + fixed concentration of IMT (3S)-1-[(2R)-2-[4-(2-chloro-4-fluoro-phenyl)-2-oxo-chromen-7-yl]oxypropanoyl]piperidine-3-carboxylic acid (Table 3: 40 nM, 120 h); negative=synergistic, positive=antagonistic
# How it was run: as §1
# JAR = JAR (placenta); concentration series of the labelled inhibitor + fixed concentration of IMT (3S)-1-[(2R)-2-[4-(2-chloro-4-fluoro-phenyl)-2-oxo-chromen-7-yl]oxypropanoyl]piperidine-3-carboxylic acid (Table 3: 40 nM, 120 h); negative=synergistic, positive=antagonistic
# How it was run: as §1
# HT1080 = HT1080 (connective tissue); concentration series of the labelled inhibitor + fixed concentration of IMT (3S)-1-[(2R)-2-[4-(2-chloro-4-fluoro-phenyl)-2-oxo-chromen-7-yl]oxypropanoyl]piperidine-3-carboxylic acid (Table 3: 40 nM, 120 h); negative=synergistic, positive=antagonistic
# How it was run: as §1
# MV4-11 = MV4-11 (hematological); concentration series of the labelled inhibitor + fixed concentration of IMT (3S)-1-[(2R)-2-[4-(2-chloro-4-fluoro-phenyl)-2-oxo-chromen-7-yl]oxypropanoyl]piperidine-3-carboxylic acid (Table 3: 40 nM, 120 h); negative=synergistic, positive=antagonistic
# How it was run: as §1
# NCIH460 = NCIH460 (lung); concentration series of the labelled inhibitor + fixed concentration of IMT (3S)-1-[(2R)-2-[4-(2-chloro-4-fluoro-phenyl)-2-oxo-chromen-7-yl]oxypropanoyl]piperidine-3-carboxylic acid (Table 3: 40 nM, 120 h); negative=synergistic, positive=antagonistic
# How it was run: as §1
# HELA = HELA (cervix); concentration series of the labelled inhibitor + fixed concentration of IMT (3S)-1-[(2R)-2-[4-(2-chloro-4-fluoro-phenyl)-2-oxo-chromen-7-yl]oxypropanoyl]piperidine-3-carboxylic acid (Table 3: 40 nM, 120 h); negative=synergistic, positive=antagonistic
# How it was run: as §1
# A375 = A375 (skin); concentration series of the labelled inhibitor + fixed concentration of IMT (3S)-1-[(2R)-2-[4-(2-chloro-4-fluoro-phenyl)-2-oxo-chromen-7-yl]oxypropanoyl]piperidine-3-carboxylic acid (Table 3: 40 nM, 120 h); negative=synergistic, positive=antagonistic
# How it was run: as §1
# MIAPACA2 = MIAPACA2 (pancreas); concentration series of the labelled inhibitor + fixed concentration of IMT (3S)-1-[(2R)-2-[4-(2-chloro-4-fluoro-phenyl)-2-oxo-chromen-7-yl]oxypropanoyl]piperidine-3-carboxylic acid (Table 3: 40 nM, 120 h); negative=synergistic, positive=antagonistic
# How it was run: as §1
# CALU6 = CALU6 (lung); concentration series of the labelled inhibitor + fixed concentration of IMT (3S)-1-[(2R)-2-[4-(2-chloro-4-fluoro-phenyl)-2-oxo-chromen-7-yl]oxypropanoyl]piperidine-3-carboxylic acid (Table 3: 40 nM, 120 h); negative=synergistic, positive=antagonistic
# How it was run: as §1
# SKOV3 = SKOV3 (ovary); concentration series of the labelled inhibitor + fixed concentration of IMT (3S)-1-[(2R)-2-[4-(2-chloro-4-fluoro-phenyl)-2-oxo-chromen-7-yl]oxypropanoyl]piperidine-3-carboxylic acid (Table 3: 40 nM, 120 h); negative=synergistic, positive=antagonistic
# How it was run: as §1
# DU145 = DU145 (prostate); concentration series of the labelled inhibitor + fixed concentration of IMT (3S)-1-[(2R)-2-[4-(2-chloro-4-fluoro-phenyl)-2-oxo-chromen-7-yl]oxypropanoyl]piperidine-3-carboxylic acid (Table 3: 40 nM, 120 h); negative=synergistic, positive=antagonistic
# How it was run: as §1
SMILES,difference between the calculated combinatorial index (BLISS) and the observed combinatorial effect (A549),difference between the calculated combinatorial index (BLISS) and the observed combinatorial effect (A673),difference between the calculated combinatorial index (BLISS) and the observed combinatorial effect (SKMEL28),difference between the calculated combinatorial index (BLISS) and the observed combinatorial effect (HCT15),difference between the calculated combinatorial index (BLISS) and the observed combinatorial effect (LOVO),difference between the calculated combinatorial index (BLISS) and the observed combinatorial effect (JAR),difference between the calculated combinatorial index (BLISS) and the observed combinatorial effect (HT1080),difference between the calculated combinatorial index (BLISS) and the observed combinatorial effect (MV4-11),difference between the calculated combinatorial index (BLISS) and the observed combinatorial effect (NCIH460),difference between the calculated combinatorial index (BLISS) and the observed combinatorial effect (HELA),difference between the calculated combinatorial index (BLISS) and the observed combinatorial effect (A375),difference between the calculated combinatorial index (BLISS) and the observed combinatorial effect (MIAPACA2),difference between the calculated combinatorial index (BLISS) and the observed combinatorial effect (CALU6),difference between the calculated combinatorial index (BLISS) and the observed combinatorial effect (SKOV3),difference between the calculated combinatorial index (BLISS) and the observed combinatorial effect (DU145)
CC(C)Nc1cc(-c2c[nH]c(C(=O)N[C@H](CO)c3cccc(Cl)c3)c2)c(Cl)cn1 [Ulixertinib],−0.0185,0.0876,0.0022,−0.0215,0.0039,0.0116,−0.0011,0.0079,0.0088,−0.0117,0.0427,0.0431,0.0100,0.0284,0.0554
Cn1cnc2c(F)c(Nc3ccc(Br)cc3Cl)c(C(=O)NOCCO)cc21 [Selumetinib],−0.0519,0.0313,0.0096,0.0320,−0.0877,0.0045,−0.0139,0.0150,−0.0276,0.0054,0.0423,−0.0734,0.0376,0.0622,0.0383
"Cc1cc(C(=O)NOCCO)c(Nc2ccc(I)cc2F)n(C)c1=O [AZD8330, 2-((2-Fluoro-4-iodophenyl)amino)-N-(2-hydroxyethoxy)-1,5-dimethyl-6-oxo-1,6-dihydropyridine-3-carboxamide]",−0.0341,−0.0047,0.0300,0.1028,0.0047,0.0124,0.0197,0.0680,0.0015,0.0000,0.0451,0.1347,−0.0116,−0.0609,0.0201
"COc1c(OCCCN2CCOCC2)ccc2c1N=C(NC(=O)c1cnc(N)nc1)N1CCN=C21 [BAY 80-6946, 2-Amino-N-{7-methoxy-8-[3-(4-morpholinyl)propoxy]-2,3-dihydroimidazo[1,2-c]quinazolin-5-yl}-5-pyrimidinecarboxamide]",0.0159,0.0259,−0.0068,0.1444,−0.0178,0.0381,−0.0627,0.0337,−0.0473,−0.0260,−0.0033,0.0574,0.0374,0.0112,0.0423
"O=C(NOC[C@H](O)CO)c1ccc(F)c(F)c1Nc1ccc(I)cc1F [PD 0325901, (R)—N-(2,3-dihydroxypropoxy)-3,4-difluoro-2-((2-fluoro-4-iodophenyl)amino)benzamide]",−0.0245,0.0281,0.0303,0.1249,−0.0229,0.0256,0.0433,0.0637,0.0200,−0.2549,0.0418,0.0500,0.0809,−0.0555,−0.0558
